Experimental data published in PMC4751497, “Characterization of SCO4439, a D-alanyl-D-alanine carboxypeptidase involved in spore cell wall maturation, resistance, and germination in Streptomyces coelicolor” (Scientific Reports, 2016).

Target: T1, His6-SCO4439 (Streptomyces coelicolor, UniProt Q9KZY7)
T1 construct: whole SCO4439 gene with N-terminal His6 tag in pET11a (pBRB7), expressed in E. coli JM109 (DE3), HisTrap purified, tag kept; native protein 84 kDa; tag followed by VARED (from primer BRB7F)
Experiment: D-Ala release, D-amino acid oxidase-peroxidase coupled colorimetric assay
Type: biochemical

T1 sequence (Q9KZY7 entry or part of it): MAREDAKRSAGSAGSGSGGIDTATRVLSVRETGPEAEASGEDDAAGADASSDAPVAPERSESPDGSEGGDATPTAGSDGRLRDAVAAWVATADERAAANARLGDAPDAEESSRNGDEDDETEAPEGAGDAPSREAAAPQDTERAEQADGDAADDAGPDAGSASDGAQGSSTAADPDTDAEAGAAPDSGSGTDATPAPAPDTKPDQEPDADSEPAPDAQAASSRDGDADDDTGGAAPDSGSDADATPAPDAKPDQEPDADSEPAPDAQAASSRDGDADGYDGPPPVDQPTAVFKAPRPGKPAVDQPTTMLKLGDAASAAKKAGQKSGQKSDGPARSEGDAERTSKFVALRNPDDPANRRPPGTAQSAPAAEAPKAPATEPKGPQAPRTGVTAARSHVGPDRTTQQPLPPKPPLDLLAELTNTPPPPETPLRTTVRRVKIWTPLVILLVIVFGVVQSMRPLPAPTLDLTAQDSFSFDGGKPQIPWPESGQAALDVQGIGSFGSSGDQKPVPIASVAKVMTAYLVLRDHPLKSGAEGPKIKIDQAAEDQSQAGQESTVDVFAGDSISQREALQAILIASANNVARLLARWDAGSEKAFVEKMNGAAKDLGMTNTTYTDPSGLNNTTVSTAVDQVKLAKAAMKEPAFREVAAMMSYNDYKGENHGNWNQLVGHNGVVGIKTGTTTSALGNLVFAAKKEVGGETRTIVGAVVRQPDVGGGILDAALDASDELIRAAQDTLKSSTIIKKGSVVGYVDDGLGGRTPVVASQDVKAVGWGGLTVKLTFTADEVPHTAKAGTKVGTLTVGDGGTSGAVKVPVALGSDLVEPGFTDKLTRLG

`CC1(C)S[C@@H]2[C@H](NC(=O)Cc3ccccc3)C(=O)N2[C@H]1C(=O)O` [penicillin G] was tested, and the IC50 was 1000 µM.
